Assay results reported in patent US20210238170A1, “5,5-Difluoro- and 5-Fluoro-5-Methyl-C-Glycoside Derivatives Useful As Dual SGLT1 / SGLT2 Modulators” (Janssen Pharmaceutica NV, priority 2018, published 2021).
Read-outs that look alike come from different tables or passages of the source.

Columns and labels:
human SGLT1 = target: T1, human SGLT1 (Homo sapiens, UniProt P13866); assay: SGLT1 in vitro assay: Na-dependent 14C-AMG uptake in CHO-K1 cells stably expressing human SGLT1; type: cell-based; settings: for inhibition at 0.3 µM: read-out: SGLT1 % Inh @ 0.3 μM
T1 construct: expressed in transfected cells
T1 sequence (P13866 1-664): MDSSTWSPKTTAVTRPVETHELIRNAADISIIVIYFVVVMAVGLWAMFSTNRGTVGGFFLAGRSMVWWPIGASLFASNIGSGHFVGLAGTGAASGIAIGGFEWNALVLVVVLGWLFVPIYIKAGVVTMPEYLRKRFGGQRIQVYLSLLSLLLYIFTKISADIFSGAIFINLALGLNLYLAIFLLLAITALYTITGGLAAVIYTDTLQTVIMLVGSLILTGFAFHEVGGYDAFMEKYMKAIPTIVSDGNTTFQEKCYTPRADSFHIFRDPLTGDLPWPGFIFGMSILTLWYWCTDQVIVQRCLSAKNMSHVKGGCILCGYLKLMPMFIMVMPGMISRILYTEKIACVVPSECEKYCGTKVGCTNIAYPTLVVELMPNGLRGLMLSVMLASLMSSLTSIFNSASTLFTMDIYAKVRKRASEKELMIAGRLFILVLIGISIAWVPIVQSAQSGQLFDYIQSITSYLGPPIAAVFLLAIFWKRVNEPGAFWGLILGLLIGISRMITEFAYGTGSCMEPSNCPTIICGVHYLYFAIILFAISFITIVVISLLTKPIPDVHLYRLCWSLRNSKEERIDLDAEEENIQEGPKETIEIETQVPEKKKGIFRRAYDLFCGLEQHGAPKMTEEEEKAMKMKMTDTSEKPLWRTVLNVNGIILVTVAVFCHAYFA
Procedure, shortened: (§1)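 Sodium-dependent uptake of 14C-α-methyl-glucopyranoside ([…]) over 2 h at 37°C was counted by scintillation in stable human SGLT2- or SGLT1-CHO-K1 lines pretreated with 10 mM Na-butyrate. Compounds at 0.001–10 μM were preincubated for 10 min in pH 7.4 buffer with 137 mM NaCl; output is %-inhibition or IC50.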

human SGLT2 = target: T2, human SGLT2 (Homo sapiens, UniProt P31639); assay: SGLT2 in vitro assay: Na-dependent 14C-AMG uptake in CHO-K1 cells stably expressing human SGLT2; type: cell-based; settings: for inhibition at 0.3 µM: read-out: SGLT2 % Inh @ 0.3 μM
T2 construct: expressed in transfected cells
T2 sequence (P31639 1-672): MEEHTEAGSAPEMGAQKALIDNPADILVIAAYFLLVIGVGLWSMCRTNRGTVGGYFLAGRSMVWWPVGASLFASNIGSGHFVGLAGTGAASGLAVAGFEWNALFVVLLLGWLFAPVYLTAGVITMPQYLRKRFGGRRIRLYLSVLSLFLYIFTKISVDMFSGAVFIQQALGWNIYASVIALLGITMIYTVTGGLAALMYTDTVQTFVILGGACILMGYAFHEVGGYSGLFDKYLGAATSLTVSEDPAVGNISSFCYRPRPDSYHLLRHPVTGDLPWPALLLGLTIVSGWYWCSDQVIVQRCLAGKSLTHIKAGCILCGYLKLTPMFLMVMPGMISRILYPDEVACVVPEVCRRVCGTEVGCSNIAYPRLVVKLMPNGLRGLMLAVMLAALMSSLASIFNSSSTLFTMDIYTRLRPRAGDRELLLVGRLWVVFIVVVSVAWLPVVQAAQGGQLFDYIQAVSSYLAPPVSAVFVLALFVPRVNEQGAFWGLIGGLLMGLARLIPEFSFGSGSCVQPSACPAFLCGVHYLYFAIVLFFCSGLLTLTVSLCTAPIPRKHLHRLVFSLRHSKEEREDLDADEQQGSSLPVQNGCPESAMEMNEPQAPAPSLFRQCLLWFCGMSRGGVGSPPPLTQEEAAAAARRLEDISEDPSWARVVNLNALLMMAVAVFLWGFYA
Procedure, shortened: as §1

SD rats = assay: Oral Glucose Tolerance Test (OGTT) in SD rats: blood glucose excursion AUC and urine glucose excretion; type: in vivo, rat; settings: mean ± SE; for Urine Glucose Excretion (g/0-4 hr): n = 8
Procedure: Biological Example 2: In Vivo Assay
Oral Glucose Tolerance Test (OGTT) in SD Rats
Overnight fasted SD rats were allocated into vehicle or test compound treatment groups based on their body weights (n=8 in each group). The animals were orally dosed with vehicle or test compound at a volume of 10 ml/kg at 30-minute prior to OGTT. The animals then received an OGTT challenge with 2 g/kg (50% glucose solution at the volume of 4 ml/kg, orally). The animals were immediately transferred into metabolic cages after they were dosed with the glucose. Blood glucose levels were measured at 0 (pre-OGTT), 30, 60, and 120 minutes after OGTT using one-touch Glucometer. Blood glucose excursion AUC (area under the curve of blood glucose) was determined from the blood glucose levels measured at the timepoints.
Table 9 below, presents the measured efficacy of the test compound(s), expressed as the percentage (%) of blood glucose AUC vs that in vehicle group. The data is interpreted such that, the smaller the percentage of blood glucose AUC of compound vs vehicle, the greater the efficacy of the test compound. Urine volume and urine glucose concentrations (tested by using Olympus system with Genzyme diagnostics assay reagent) were measured to determine the urine glucose excretion (UGE) in 4-hr period after OGTT (0-4 hours).

[1] = @ 0.3 μM, CHO-K1 cells stably expressing human SGLT1, 14C-AMG uptake
[2] = CHO-K1 cells stably expressing human SGLT1, 14C-AMG uptake, compounds of formula (I) where R0 is fluoro
[3] = @ 0.3 μM, CHO-K1 cells stably expressing human SGLT2, 14C-AMG uptake
[4] = CHO-K1 cells stably expressing human SGLT2, 14C-AMG uptake, compounds of formula (I) where R0 is fluoro
[5] = Rattus norvegicus, 2 h, oral dose 1 mg/kg, n = 8, read-out: 120-min Blood Glucose AUC vs Vehicle (%)
[6] = Rattus norvegicus, 2 h, oral dose 10 mg/kg, n = 8, read-out: 120-min Blood Glucose AUC vs Vehicle (%)

Compound | inhibition at 0.3 µM (human SGLT1; [1]) [%] | IC50 (human SGLT1; [2]) [µM] | inhibition at 0.3 µM (human SGLT2; [3]) [%] | IC50 (human SGLT2; [4]) [µM] | SGLT1 % Inh @ 0.3 μM (human SGLT1; [1]) [%] | SGLT2 % Inh @ 0.3 μM (human SGLT2; [3]) [%] | also measured
COc1ccc(Cc2cc([C@@H]3O[C@H](CO)C(F)(F)[C@H](O)[C@H]3O)c(O)cc2OC)cc1 [Compound 91, (2S,3R,4R,6R)-5,5-difluoro-2-(2-hydroxy-4-methoxy-5-(4-methoxybenzyl)phenyl)-6-(hydroxymethyl)-tetrahydro-2H-pyran-3,4-diol] | 74.3 | 0.074 | 76.3 | 0.0032 |  |  | response vs control in vivo at 1 mg/kg (SD rats; [5]): 61.6 ± 3.9%; response vs control in vivo at 10 mg/kg (SD rats; [6]): 41.3 ± 2.3%; Urine Glucose Excretion (g/0-4 hr) (SD rats; oral dose 1 mg/kg): 0.026 ± 0.007 g/0-4 hr; Urine Glucose Excretion (g/0-4 hr) (SD rats; oral dose 10 mg/kg): 0.089 ± 0.01 g/0-4 hr
CCc1cc(O)c([C@@H]2O[C@H](CO)C(F)(F)[C@H](O)[C@H]2O)cc1Cc1ccc(OC)cc1 [Compound 88, (2S,3R,4R,6R)-2-(4-ethyl-2-hydroxy-5-(4-methoxybenzyl)phenyl)-5,5-difluoro-6-(hydroxymethyl)-tetrahydro-2H-pyran-3,4-diol] | 77.2 | 0.041 | 88.6 | 0.0017 |  |  | response vs control in vivo at 1 mg/kg (SD rats; [5]): 65.9 ± 1.8%; response vs control in vivo at 10 mg/kg (SD rats; [6]): 41.6 ± 1.1%; Urine Glucose Excretion (g/0-4 hr) (SD rats; oral dose 1 mg/kg): 0.046 ± 0.014 g/0-4 hr; Urine Glucose Excretion (g/0-4 hr) (SD rats; oral dose 10 mg/kg): 0.349 ± 0.023 g/0-4 hr
COc1cc(O)c([C@@H]2O[C@H](CO)[C@@](C)(F)[C@H](O)[C@H]2O)cc1Cc1ccc2c(c1)OCCO2 [Compound 6, (2S,3R,4R,5S,6R)-2-(5-((2,3-dihydrobenzo[b][1,4]dioxin-6-yl)methyl)-2-hydroxy-4-methoxyphenyl)-5-fluoro-6-(hydroxymethyl)-5-methyl-tetrahydro-2H-pyran-3,4-diol] |  |  |  |  |  |  | inhibition at 0.3 µM (human SGLT1; 0.3 μM, CHO-K1 cells expressing human SGLT1): 72.6%; IC50 (human SGLT1; CHO-K1 cells expressing human SGLT1, 14C-AMG uptake): 0.037 µM; inhibition at 0.3 µM (human SGLT2; 0.3 μM, CHO-K1 cells expressing human SGLT2): 92.8%; IC50 (human SGLT2; CHO-K1 cells expressing human SGLT2, 14C-AMG uptake): 0.0043 µM; response vs control in vivo at 1 mg/kg (SD rats; [5]): 71.6 ± 0.7%; response vs control in vivo at 10 mg/kg (SD rats; [6]): 55.5 ± 1.7%; Urine Glucose Excretion (g/0-4 hr) (SD rats; oral dose 1 mg/kg): 0.000 g/0-4 hr; Urine Glucose Excretion (g/0-4 hr) (SD rats; oral dose 10 mg/kg): 0.047 ± 0.008 g/0-4 hr
COc1cc(Cl)c(Cc2ccc(Cl)cc2)cc1[C@@H]1O[C@H](CO)C(F)(F)[C@H](O)[C@H]1O [Compound 168] | 43.2 | 0.175 | 77.6 | 0.0009 |  |  | 
OC[C@H]1O[C@@H](c2cc(Cc3ccc(OCF)cc3)c(C3CC3)cc2O)[C@H](O)[C@@H](O)C1(F)F [Compound 143] |  |  |  |  | 72.3 | 62.9 | 
COc1c([C@@H]2O[C@H](CO)C(F)(F)[C@H](O)[C@H]2O)cc(Cc2ccc(OCF)cc2)c2c1CCO2 [Compound 184] |  |  |  |  | 24.7 | 73.2 | 

The next lines start with results.

inhibition at 0.3 µM (human SGLT1; [1]) [%] | IC50 (human SGLT1; [2]) [µM] | inhibition at 0.3 µM (human SGLT2; [3]) [%] | IC50 (human SGLT2; [4]) [µM] | SGLT1 % Inh @ 0.3 μM (human SGLT1; [1]) [%] | SGLT2 % Inh @ 0.3 μM (human SGLT2; [3]) [%] | Compound | also measured
56.7 | 0.145 | 62.4 | 0.0072 |  |  | CCc1ccc(Cc2cc([C@@H]3O[C@H](CO)C(F)(F)[C@H](O)[C@H]3O)c(O)c3c2OCC3)cc1 [Compound 30] | response vs control in vivo at 1 mg/kg (SD rats; [5]): 86 ± 3.4%; response vs control in vivo at 3 mg/kg (SD rats; Rattus norvegicus, 2 h, oral dose 3 mg/kg, n = 8, read-out: 120-min Blood Glucose AUC vs Vehicle (%)): 80.3 ± 1.6%; response vs control in vivo at 10 mg/kg (SD rats; [6]): 72 ± 2.3%; Urine Glucose Excretion (g/0-4 hr) (SD rats; oral dose 1 mg/kg): 0.001 ± 0.0001 g/0-4 hr; Urine Glucose Excretion (g/0-4 hr) (SD rats; oral dose 3 mg/kg): 0.001 ± 0.0002 g/0-4 hr; Urine Glucose Excretion (g/0-4 hr) (SD rats; oral dose 10 mg/kg): 0.001 ± 0.0002 g/0-4 hr
71.3 | 0.093 |  | 0.0042 |  |  | OC[C@H]1O[C@@H](c2cc(Cc3cc4ccccc4s3)c(Cl)cc2O)[C@H](O)[C@@H](O)C1(F)F [Compound 27, (2S,3R,4R,6R)-2-[5-(benzothiophen-2-ylmethyl)-4-chloro-2-hydroxy-phenyl]-5,5-difluoro-6-(hydroxymethyl)tetrahydropyran-3,4-diol] | 
84 | 0.057 | 85.2 | 0.0009 |  |  | OC[C@H]1O[C@@H](c2cc(Cc3ccc4c(c3)OCC4)c(Cl)cc2O)[C@H](O)[C@@H](O)C1(F)F [Compound 111, (2S,3R,4R,6R)-2-(4-chloro-5-((2,3-dihydrobenzofuran-6-yl)methyl)-2-hydroxyphenyl)-5,5-difluoro-6-(hydroxymethyl)-tetrahydro-2H-pyran-3,4-diol] | 
 |  |  |  | 21.6 | 76.8 | Cc1cc(O)c([C@@H]2O[C@H](CO)C(F)(F)[C@H](O)[C@H]2O)cc1Cc1ccc(-c2cccc(F)c2)s1 [Compound 71] | 
 |  |  |  | 64.0 | 67.1 | Cc1cc(O)c([C@@H]2O[C@H](CO)C(F)(F)[C@H](O)[C@H]2O)cc1Cc1cc2c(s1)CCN(C(=O)C1CCCC1)C2 [Compound 69] | 
 |  |  |  | 8.9 | 74.3 | Cc1cc(OC(C)C)c([C@@H]2O[C@H](CO)C(F)(F)[C@H](O)[C@H]2O)cc1Cc1cc2ccccc2s1 [Compound 42] | 
 | 0.044 |  | 0.0329 |  |  | CCc1cc(O)c([C@@H]2O[C@H](CO)C(F)(F)[C@H](O)[C@H]2O)cc1Cc1cc2ccccc2s1 [Compound 26, (2S,3R,4R,6R)-2-[5-(benzothiophen-2-ylmethyl)-4-ethyl-2-hydroxy-phenyl]-5,5-difluoro-6-(hydroxymethyl)tetrahydropyran-3,4-diol] | 
 |  |  |  | 38.5 | 73.0 | CC(=O)N1CCc2sc(Cc3cc([C@@H]4O[C@H](CO)C(F)(F)[C@H](O)[C@H]4O)c(O)cc3Cl)cc2C1 [Compound 72] | 
 |  |  |  | 20.3 | 63.6 | Cc1ccc([C@@H]2O[C@H](CO)C(F)(F)[C@H](O)[C@H]2O)cc1Cc1cc2c(s1)CCN(C(=O)c1nccs1)C2 [Compound 79] | 
